Here are results for one compound from patent US20110152379A1, “COMPOSITION FOR CONTROL OF AGING AND/OR EXTENSION OF LIFE, CONTAINING DAPSONE AS ACTIVE INGREDIENT” (priority 2008, published 2011).

One data set deals with C. elegans. Briefly: Oxygen uptake rate of C. elegans (Clark-type oxygen electrode). The following applies: C. elegans treated with DDS; FIG. 10. It counts as in vivo. On the procedure:
The oxygen uptake rate was measured by using the method disclosed in the theses (50, 51) using Clark-type oxygen electrode (782 Oxygen Meter, Strathkelvin Instruments, Glasgow, UK). […] Approximately 1500 C. elegans in 200 uL of S-basal buffer were added to Mitocell chamber with Clark-type oxygen electrode to measure the oxygen uptake rate for several minuets. A sample was carefully taken from the chamber and then twice homogenized at 5000 rpm for 20 seconds by using Precellys24 homogenizer with glass bead. The sample was centrifuged at 15000 g for 20 minutes and the protein in the supernatant was quantified by using BCA protein quantification kit.

The next data set relates to ceDuox1. Briefly: RT-PCR of ceDuox1 mRNA in worms. It counts as in vivo, C. elegans. The following applies: worms treated with DDS; FIG. 13. The method, then: Total RNA was isolated by using TRI reagent available from MRC Company and first cDNA strain was synthesized by using Oligo-dT and Superscript II Reverse Transcriptase (available from Invitrogen Company). The gene amplification (PCR) was performed by using PCR Master Mix (Genenmed) and as the base sequence of the primer, ceDuox1; 5′-[…]-3′ (Forward Primer) and 5′-[…]-3′ (Reverse Primer), actin 5′-[…]-3′ (Forward Primer) and 5′-[…]-3′ (Reverse Primer) were used.

The next data set concerns human diploid fibroblast. Briefly: Survival rate of human diploid fibroblast treated with PQ (CCK-8). The following applies: DDS pretreatment (0.1, 1, 5, 20 and 50 uM) 3 hours, then 1 mM PQ 48 hours; FIG. 23. On the procedure:
The above cell was cultured by adding Cell Counting Kit-8 for 48 hours and then the survival ability of cell was measured. In addition, DPI (5 uM) was pretreated for 30 minutes and NAC (2 mM) was pretreated for 3 hours, and then 1 mM of PQ was treated as a positive control.
The evaluation of survival rate of cell was performed by using Counting Kit (CCK-8) from Dojindo Laboratory Company (Japan). The human diploid fibroblast was cultured at 96-well plate for 24 hours before treating. […] The absorbance was measured at 450 nm.

The subject of data set [1] is mitochondria superoxide anion. The data set is described as follows: Superoxide anion in mitochondria, MitoSOX Red. It counts as cell-based. The following applies: human diploid fibroblast; 1 mM PQ 30 minutes; FIG. 24B. On the procedure:
The cell was treated with 1 mM of PQ for 30 minutes, and then was cultured at 37° C. for 15 minutes after adding oxidant-sensitive fluorescent dyes (A) DHE (5 uM, cytosol specific) and (B) MitoSOX (5 uM, mitochondria specific), respectively. For identifying the change of fluorescence, the excitation and emission wavelength of DHE were measured at 515 and 590 nm and MitoSOX was measured at 520 and 580 nm by using a multiwell plate reader. The results were indicated by calculating the results of three experiments as a control rate (%). The statistical significant was expressed as *, # p<0.005; ** p<0.05.
Mitochondria superoxide anion was measured by using the fluorescence material, i.e., MitoSOX Red. […] The cell was twice washed with DPBS and the fluorescence was immediately measured at excitation wavelength 515 nm and emission wavelength 590 nm by using CEFS [Cary Eclipse fluorescence spectrophotometer (Varian, Calif., USA)] machine.

The next data set has as its system calcium. Briefly: Calcium amount in a cell, Fluo-4. The following applies: human diploid fibroblast, 1 mM PQ, FIG. 27. The class given is cell-based. On the procedure: HDF cell was cultured at 96-well plate and the calcium in cell was measured by using Fluo-4AM. […] The amount of Calcium in a cell was measured by using Fluo-4 (5 uM) that is a fluorescent material for labeling calcium and is well passed through a cell. The cell was cultured at 37° C. for 30 minutes and then maintained at a room temperature for 30 minutes without light in order for a complete de-esterification of AM ester in a cell: The fluorescent material that was left was removed except a cell by using HBSS containing 20 mM of HEPES (pH 7.4), and 100 ul of HBSS was added into wells containing cells, respectively. The fluorescent signal was measured at 494 nm for the excitation wavelength and 516 nm for the emission wavelength by using the multi-well fluorescence plate Eclipse fluorescence spectrophotometer (Varian, Calif., USA). The result was shown as Relative fluorescence units (RFUs).

The next data set deals with PKCβ. The data set is described as follows: PKC phosphorylation induced by PQ, Western blot. The following applies: human diploid fibroblast; 1 mM PQ; FIG. 28. The class given is cell-based. The method, then: (§1) The isolated sample was transferred to a nitrocellulose and analyzed through Western Blot using MS601 (Total OXPHOS Complexes Detection Kit, MitoSciences, containing antibodies against SDH30 subunit of complex II (5 μg/ml), Core2 subunit of complex III (0.2 μg/ml), COXII subunit of complex IV (2 μg/ml), and subunit α of F1-ATPase of complex V (0.2 μg/ml)), PCKpan-p, PCKα/β-p, PKCδ-p (Phospho-PKC antibody Sampler Kit, Cell Signaling Technology), PKC α, PCKβ, PKCδ (Life Technologies), β-Actin (Sigma), and the like. The measurement was performed by using a horseradish peroxygenase-conjugated secondary antibodies (Zymed) and ECL (Pierce). The results were shown through visualizing by using Autoradiographic film (Image Reader, LAS-3000Fujifilm, Japan).
For orientation: Immunoblotting shows a protein as a band on a membrane.

The subject of another data set is mitochondria complex. Briefly: Mitochondria complex protein amount by Western blot in PQ-treated human diploid fibroblast. The following applies: 1 mM PQ 24 hours, FIG. 29A. It counts as cell-based. The method, then:
The protein amount of mitochondria constituent complex was measured by using Western Blot using Complex I (20 kDa ND6 subunit), Complex II (30 kDa FeS, non-heme iron protein, SDHB), Complex III (47 kDa core protein 2), Complex IV (18 kDa subunit IV), Complex V (55 kDa subunit a ATP synthase), and the like. […] The membrane potential (Δψm) of mitochondria used DiOC6. […] Since then, the above fibroblast was treated with 40 nM of DiOC6 for 15 minutes. The results were measured by using Cary Eclipse Fluorescence Spectrophotometer (Varian, Calif., USA) and the excitation wavelength and emission wavelength were measured at 480 nm and 520 nm, respectively.
as §1, with “The measurement was performed by using a horseradish peroxygenase-conjugated secondary antibodies (Zymed) and ECL (Pierce).” left out

Turning to `Nc1ccc(S(=O)(=O)c2ccc(N)cc2)cc1` [DDS, 4,4′-diaminodiphenylsulfone], the oxygen uptake rate entry in the data set on C. elegans was “meaningfully decreased”. Besides, the “amounts of mRNA of C. elegans NOX, ceDuox” value in the data set with ceDuox1 is “significantly decreased”. In the data set on human diploid fibroblast, the “viability of human diploid fibroblast compared with the cell having the cytotoxic of PQ” value was “improved”. Besides, in data set [1], the “production of superoxide anion in the mitochondria” value is on record as “suppresses”. Also, the “amount of calcium increased by PQ” value in the data set with calcium is recorded as “decreases”. Besides, in the data set with PKCβ, the “PKCβ phosphorylation (activity) increased by PQ” value is on record as “reduced”. In addition, the “amount of mitochondria complex reduced by PQ” value with mitochondria complex is given as “recover”.
